What was measured:
[1] = Changes in body weight after BNCT irradiation; type: in vivo, mouse; details: 25 mg (10B)/kg iv, neutron irradiated
Protocol: As described in (A), the U-87 MG tumor-bearing mice were injected with 200 μL of a PBS solution of a boron compound (PBC-IP-HSA, L-BPA: 25 mg (^10B)/kg for each) through the tail vein. The whole mouse was placed in an acrylic mouse holder and fixed to a thermoplastic plate having a thickness of 5 mm. Three hours (L-BPA) or six hours (PBC-IP-HSA) after administration, the right thigh of the mouse was irradiated with a neutron in a dose range of 4.5 to 6.1×10^12 neutrons/cm^2 in the KUR reactor. The BNCT effect was evaluated based on the changes in tumor volume in the mouse (FIG. 4B). In order to determine the tumor volume, two perpendicular diameters of the tumor were measured with slide calipers and calculated by using the spherical volume expression {4/3π×(R/2)^3}. Here, R is the average of the longest dimension and the shortest dimension (each in millimeters) of the tumor.
In the irradiation experiment carried out in (B), changes in body weight after irradiation were measured.

[2] = system: F98 malignant glioblastoma; assay: BNCT therapeutic effect (survival time) in F98 malignant glioblastoma cell-implanted rat brain tumor model; type: in vivo; details: after tumor implantation; BNCT with BPA (iv) or PBC-IP (CED)
Protocol: Three hours after administration of PBC-IP (CED), neutron irradiation was carried out to verify the therapeutic effect of neutron capture therapy (FIG. 7). The brain tumor models were divided into an untreated group, a neutron irradiation only group, a BNCT with BPA (iv) group, a BNCT with local administration of PBC-IP (CED) group, and a PBC-IP (CED) plus BPA (iv) group to carry out a treatment experiment, and the survival times after tumor implantation were compared. The therapeutic effect of intravenous BPA as a control for BNCT treatment represented a significant prolongation of survival time with a median survival time of 37 days. […] The effect was even higher in the group that received treatment with PBC-IP (CED) […] plus intravenous BPA, indicating the antitumor effect of PBC-IP on a BPA-refractory tumor site. In the C6-implanted rat brain tumor model, the tumor boron concentration by PBC-IP (CED) was about 36 ppm, which was higher than that for F98.
In a BNCT experiment, 14 days after implantation of 10^3 F98 malignant glioblastoma cells, neutron irradiation was carried out by using KURRI. Malignant glioblastoma cell-bearing rats were randomly divided into 5 groups (groups 1 to 5) so that each group consisted of 6 to 10 rats. […] The therapeutic effect was evaluated by the survival times of all rats.

[3] = system: A549, U87MG, C6, F98 cells; assay: Intracellular boron accumulation in various cells (ICP-AES); type: cell-based, human, rat; details: 5 μg B/mL
Protocol: F98 rat malignant glioblastoma cells were provided by Dr. Rolf Barth (Department of Pathology, The Ohio State University, Columbus, OH, US) and were cultured at 37° C. in 5% CO^2 by using Dulbecco's modified Eagle's medium (DMEM) supplemented with 10% fetal bovine serum (FBS) and 10% penicillin/streptomycin/amphotericin B. The F98 rat malignant glioblastoma cells were histologically characterized as anaplastic astrocytoma.
First, 5×10^5 cells were placed in a 100 mm dish (Becton Dickinson, Franklin Lakes, New Jersey) and cultured at 37° C. in 5% CO2 by using the medium described above. […] After that, the medium containing the boron compound was removed, and the cells were washed twice with 4% phosphate buffered saline (PBS) and then detached with a trypsin-ethylenediaminetetraacetic acid solution. After that, a medium was added, centrifugation (200×g, 5 minutes) was carried out twice, and cells were counted and finally sedimented. After that, the cells were digested with a 1 N nitric acid solution (Wako Pure Chemical Industries, Osaka Japan) overnight, and the amount of boron taken up was measured by inductively coupled plasma-atomic emission spectroscopy (ICP-AES) using an iCAP6300 emission spectrometer (Hitachi High-Technologies, Tokyo, Japan).

A549 cells (FRα(−)) = assay: BNCT antitumor effect in vitro (thermal neutron irradiation, MTT survival rate); type: cell-based, human; details: 25 ppm 10B, 3 hours, thermal neutron dose-dependent, MTT after 96 hours
Protocol: (A) Human brain tumor cell U87MG (FRα(+)), (B) human lung cancer cell A549 (FRα(−)). The cells were cultured for 3 hours with an agent ^10B at a concentration of 25 ppm, followed by removal of the agent and irradiated.
Cells (A549 1000 cells/well or U-87 MG 500 cells/well) seeded in a 96 well plate were cultured together with PBC-IP and L-BPA-fructose at a concentration of 25 ppm [^10B] at 37° C. for 3 hours, and then unilaterally irradiated with thermal neutrons from one side of the plate for 12 minutes. Subsequently, the medium was replaced, the cells were cultured for 96 hours, and then an MTT assay was carried out to evaluate the survival rate of the cells (FIG. 3). The thermal neutron irradiation was carried out by using the irradiation facility of the Institute for Integrated Radiation and Nuclear Science, Kyoto University (KUR), and the cells after irradiation were cultured in the controlled area of KUR. In addition, the survival rate is calculated based on the following expression.

Question: With `N[C@@H](Cc1ccc(B(O)O)cc1)C(=O)O` [BPA] as the molecule, how does the “changes in body weight after irradiation compared with the control group” value [1] read?
Answer: Its value is “no significant difference”.

Question: And the median survival time [2]?
Answer: Its median survival time is 37 days.

Question: What about the “selective accumulation among the four types of cells” value [3] of the same molecule?
Answer: Its value is “selective accumulation in the A549 cells”.

Question: What about the “BNCT antitumor effect (cell survival rate)” value (A549 cells (FRα(−))) of the same molecule?
Answer: Its value is “higher BNCT antitumor effect”.
